The text below walks through data of ChEMBL document CHEMBL2040790 (Bioorg Med Chem Lett, 2012).

One test concerns Vaccinia virus. Put plainly: Antiviral activity against Vaccinia virus. The format is functional, organism-based. The settings on record: Orthopoxvirus vaccinia.
The test system of a further test is La Crosse virus. Put plainly: Antiviral activity against La Crosse virus infected in african green monkey Vero cells assessed as inhibition of virus-induced cytopathic effect by fluorometric analysis. The format is functional, organism-based.

SMILES strings stand for the structures.

With `CC(C)(C)c1ccc(C(=O)NC(=S)Nc2nc(-c3cccc([N+](=O)[O-])c3)cs2)cc1`, the EC50 with Vaccinia virus and in the test on La Crosse virus was greater than 25 µM throughout. As for `CC(C)(C)c1ccc(C(=O)NC(=S)NC2CCCCC2)cc1`, the EC50 is 4.92 µM in the test with Vaccinia virus and 3.71 µM in the test on La Crosse virus. The matching figures for `CNc1ccc(NC(=S)NC(=O)c2ccc(C(C)(C)C)cc2)cc1`: 1.16 µM and 1.45 µM. In the test on Vaccinia virus, `CN(C)c1ccc(NC(=S)NC(=O)c2ccc(C(C)(C)C)cc2)cc1` showed an EC50 of 2.43 µM. Consider `COc1cc(NC(=S)NC(=O)c2ccc(C(C)(C)C)cc2)ccc1NC(=O)CCN(C)C`, for which the EC50 in the test on Vaccinia virus and in the test on La Crosse virus was greater than 25 µM in each case. Take `COc1cc(NC(=S)NC(=O)c2ccc(C(C)(C)C)cc2)ccc1NC(=O)CCCCN(C)C`: the EC50 in the test on Vaccinia virus and with La Crosse virus was greater than 25 µM each time. With `COc1ccc(NC(=S)NC(=O)c2ccc(C(C)(C)C)cc2)cc1NC(=O)c1ccccc1Cl`, the EC50 in the test on Vaccinia virus and in the test with La Crosse virus was greater than 25 µM throughout. Take `Cc1ccc(NC(=S)NC(=O)c2ccc(C(C)(C)C)cc2)cc1C`: the EC50 with Vaccinia virus was determined as 3.93 µM; with La Crosse virus, 1.23 µM. `Cc1ccc(NC(=S)NC(=O)c2ccc(C(C)(C)C)cc2)c(C)c1`: the EC50 turned out to be 1.06 µM in the test on Vaccinia virus and 0.88 µM in the test on La Crosse virus. The matching figures for `COc1cc(NC(=S)NC(=O)c2ccc(C(C)(C)C)cc2)ccc1NC(C)=O`: 3.27 µM and 1.35 µM. Take `COc1cc(NC(=S)NC(=O)c2ccc(C(C)(C)C)cc2)ccc1NC(=O)CC(=O)O`: the EC50 with Vaccinia virus and with La Crosse virus was greater than 25 µM throughout.

Take `CC(C)(C)c1ccc(C(=N)NC(=S)Nc2ccccc2Cl)cc1`: the EC50 in the test with Vaccinia virus and in the test on La Crosse virus was greater than 25 µM in each case. Consider `COC(=O)c1cnc(NC(=S)NC(=O)c2ccc(C(C)(C)C)cc2)s1`, for which the EC50 with Vaccinia virus and in the test with La Crosse virus was greater than 25 µM each time. As for `CC(C)(C)c1ccc(C(=O)NC(=S)Nc2cccc(NC(=O)c3ccccc3Cl)c2)cc1`, the EC50 in the test on Vaccinia virus and in the test on La Crosse virus was greater than 25 µM throughout. In the case of `CC(C)(C)c1ccc(C(=O)NC(=S)Nc2cccc(CN)c2)cc1`, the EC50 in the test on Vaccinia virus and in the test with La Crosse virus was greater than 25 µM in each case. Turning to `Cc1cccc(Cl)c1NC(=S)NC(=O)c1ccc(C(C)(C)C)cc1`, the EC50 in the test with Vaccinia virus came to 2.49 µM; in the test with La Crosse virus, 0.94 µM.

Turning to `CN(Cc1ccccc1)S(=O)(=O)c1ccc(NC(=S)NC(=O)c2ccc(C(C)(C)C)cc2)cc1`, the EC50 with Vaccinia virus and in the test on La Crosse virus was greater than 25 µM each time.

Regarding `COc1cc(NC(=S)NC(=O)c2ccc(C(C)(C)C)cc2)ccc1NC(=O)CCC(=O)O`, the concentration for a half-maximal effect (EC50) in the test with Vaccinia virus and in the test on La Crosse virus was greater than 25 µM throughout. Turning to `CC(C)(C)c1ccc(C(=O)NC(=S)Nc2ccc(S(=O)(=O)Nc3nccs3)cc2)cc1`, the EC50 with Vaccinia virus and in the test on La Crosse virus was greater than 25 µM throughout.

With `CC(C)(C)c1ccc(C(=O)NC(=S)Nc2ccccn2)cc1`, the EC50 with Vaccinia virus and in the test on La Crosse virus was greater than 25 µM in each case. For the molecule `CC(C)(C)c1ccc(C(=O)NC(=S)Nc2ccc(Nc3ccccc3)cc2)cc1`, the results for the EC50 in the test on Vaccinia virus and with La Crosse virus were 0.82 µM and 1.7 µM, respectively. On to `COc1cc(N/C(=N/C(=O)c2ccc(C(C)(C)C)cc2)SCC(=O)OC(C)(C)C)ccc1NC(=O)c1ccccc1Cl`, for which the EC50 in the test on Vaccinia virus and in the test on La Crosse virus was greater than 25 µM throughout. Consider `CC(C)(C)c1ccc(C(=O)NC(=S)Nc2ccc([N+](=O)[O-])cc2)cc1`, for which the EC50 is 4.08 µM in the test with Vaccinia virus and greater than 25 µM in the test on La Crosse virus. As to `COC(=O)CC(=O)Nc1ccc(NC(=S)NC(=O)c2ccc(C(C)(C)C)cc2)cc1OC`, the results for the concentration for a half-maximal effect (EC50) in the test with Vaccinia virus and in the test on La Crosse virus were 18.6 µM and greater than 25 µM, respectively. For `COc1ccc(-c2csc(NC(=S)NC(=O)c3ccc(C(C)(C)C)cc3)n2)cc1OC` the same measures were greater than 25 µM and greater than 25 µM. With `COc1cc(N/C(=N/C#N)NC(=O)c2ccc(C(C)(C)C)cc2)ccc1NC(=O)c1ccccc1Cl`, the EC50 in the test with Vaccinia virus was greater than 25 µM. Regarding `Cc1ccc(NC(=S)NC(=O)c2ccc(C(C)(C)C)cc2)cc1`, the figures for the EC50 in the test with Vaccinia virus and in the test with La Crosse virus were 1.91 µM and 4.86 µM, respectively. With `CC(C)(C)c1ccc(C(=O)NC(=S)Nc2cc(C(F)(F)F)ccc2Cl)cc1`, the EC50 stood at 1 µM in the test with Vaccinia virus and 0.6 µM with La Crosse virus. For `COc1cc(N/C(=N/C(=O)c2ccc(C(C)(C)C)cc2)SCCN(C)C)ccc1NC(=O)c1ccccc1Cl` the same measures were greater than 25 µM and greater than 25 µM. For `COc1cc(NC(=S)NC(=O)c2ccc(C(C)(C)C)cc2)ccc1NC(=O)c1c[nH]cn1`, the EC50 with Vaccinia virus and with La Crosse virus was greater than 25 µM in each case. Take `COc1cc(NC(=S)NC(=O)c2ccc(C(C)(C)C)cc2)ccc1NC(=O)c1ncccn1`: the concentration giving a half-maximal response (EC50) with Vaccinia virus and in the test with La Crosse virus was greater than 25 µM throughout.

In the case of `COc1cc(NC(=S)NC(=O)c2ccc(C(C)(C)C)cc2)ccc1NC(N)=O`, the EC50 in the test on Vaccinia virus is greater than 25 µM; in the test with La Crosse virus it was 4.86 µM.

On to `CC(C)(C)c1ccc(C(=O)NC(=S)Nc2cccc(C(=O)O)c2)cc1`, for which the EC50 in the test with Vaccinia virus and in the test with La Crosse virus was greater than 25 µM throughout.

For `COc1cc(NC(=S)NC(=O)c2ccc(C(C)(C)C)cc2)ccc1NC(=S)c1ccccc1Cl`, the results for the EC50 in the test with Vaccinia virus and with La Crosse virus were 0.99 µM and 0.64 µM, respectively. The matching figures for `COc1cc(NC(=S)NC(=O)c2ccc(C(C)(C)C)cc2)ccc1NC(=N)N`: greater than 25 µM and greater than 25 µM. Turning to `CC(C)(C)c1ccc(C(=O)NC(=S)Nc2cccc([N+](=O)[O-])c2)cc1`, the EC50 in the test on Vaccinia virus and with La Crosse virus was greater than 25 µM each time. `CC(C)(C)c1ccc(C(=O)NC(=S)Nc2ccc(Nc3ccncc3)cc2)cc1`: the EC50 is greater than 25 µM with Vaccinia virus and 7.7 µM in the test with La Crosse virus. Regarding `COc1ccc(NC(=S)NC(=O)c2ccc(C(C)(C)C)cc2)cc1`, the EC50 with Vaccinia virus was 2.39 µM; in the test with La Crosse virus it was greater than 25 µM. Turning to `COc1cccc(NC(=S)NC(=O)c2ccc(C(C)(C)C)cc2)c1`, the EC50 in the test on Vaccinia virus is 4.07 µM; in the test with La Crosse virus, greater than 25 µM.

Consider `COc1cc(NC(=S)NC(=O)c2ccc(C(C)(C)C)cc2)ccc1NC(=O)c1ncc[nH]1`, for which the EC50 in the test with Vaccinia virus and in the test on La Crosse virus was greater than 25 µM each time. For the molecule `COc1cc(NC(=S)NC(=O)c2ccc(C(C)(C)C)cc2)ccc1NC(=O)c1ccccc1N`, the EC50 in the test on Vaccinia virus was 2.61 µM; in the test with La Crosse virus, greater than 25 µM.

Turning to `Cc1cccc(NC(=S)NC(=O)c2ccc(C(C)(C)C)cc2)c1Cl`, the values for the EC50 in the test with Vaccinia virus and with La Crosse virus were 1.83 µM and 1.17 µM, respectively. For `CCS/C(=N\C(=O)c1ccc(C(C)(C)C)cc1)Nc1ccc(NC(=O)c2ccccc2Cl)c(OC)c1` the same measures were 0.23 µM and 0.3 µM. For `CC(C)(C)c1ccc(C(=O)NC(=S)Nc2ccc(S(=O)(=O)N3CCCCC3)cc2)cc1` the same measures were greater than 25 µM and greater than 25 µM.

On to `CC(C)(C)c1ccc(C(=O)NC(=S)Nc2ccc(Cl)cc2Cl)cc1`, for which the EC50 in the test on Vaccinia virus and in the test with La Crosse virus was greater than 25 µM in each case. Regarding `CC(C)(C)c1ccc(C(=O)NC(=S)Nc2ccc(S(=O)(=O)NC3CCCCC3)cc2)cc1`, the 50% effective concentration (EC50) with Vaccinia virus and in the test with La Crosse virus was greater than 25 µM throughout. For `CC(C)(C)c1ccc(C(=O)NC(=S)Nc2ccc(Nc3cccnc3)cc2)cc1`, the concentration for a half-maximal effect (EC50) was 24.5 µM with Vaccinia virus and greater than 25 µM in the test on La Crosse virus. For `CCS/C(=N\C(=O)c1ccc(C(C)(C)C)cc1)Nc1ccccc1Cl` the same measures were 1.91 µM and 0.51 µM. In the case of `COc1cc(NC(=S)NC(=O)c2ccc(C(C)(C)C)cc2)ccc1NC(=O)c1ccc(N)cc1`, the values for the EC50 in the test with Vaccinia virus and in the test with La Crosse virus were 20 µM and greater than 25 µM, respectively. Regarding `Cc1ccccc1NC(=S)NC(=O)c1ccc(C(C)(C)C)cc1`, the EC50 with Vaccinia virus amounted to 0.83 µM; with La Crosse virus it was 0.63 µM. `CC(C)(C)c1ccc(C(=O)NC(=S)Nc2ccccc2N)cc1`: the concentration giving a half-maximal response (EC50) with Vaccinia virus and in the test on La Crosse virus was greater than 25 µM throughout. With `CC(C)(C)c1ccc(C(=O)NC(=S)Nc2ccc(NC(=O)c3ccccc3)cc2Cl)cc1`, the results for the EC50 in the test with Vaccinia virus and with La Crosse virus were 0.16 µM and 0.08 µM, respectively. Take `COc1cc(NC(=S)NC(=O)c2ccc(C(C)(C)C)cc2)ccc1NC(=O)c1ccc2nc[nH]c2c1`: the EC50 with Vaccinia virus and in the test with La Crosse virus was greater than 25 µM each time.

Take `Cc1cccc(NC(=S)NC(=O)c2ccc(C(C)(C)C)cc2)c1`: the values for the EC50 with Vaccinia virus and in the test with La Crosse virus were 1.01 µM and 1.33 µM, respectively.

With `COc1cc(NC(=S)NC(=O)c2ccc(C(C)(C)C)cc2)ccc1NC(=O)c1ccncc1`, in the test on Vaccinia virus, the response was half-maximal at 2.03 µM (EC50). Turning to `CC(C)(C)c1ccc(C(=O)NC(=S)Nc2ccc(NC(=O)c3ccccc3Cl)c(O)c2)cc1`, the EC50 in the test with Vaccinia virus is 0.23 µM; in the test with La Crosse virus it was 0.21 µM. In the case of `CCN(C(=S)NC(=O)c1ccc(C(C)(C)C)cc1)c1ccc(NC(=O)c2ccccc2Cl)c(OC)c1`, the EC50 in the test on Vaccinia virus was 10.1 µM; in the test with La Crosse virus, greater than 25 µM. The matching figures for `CC(C)(C)c1ccc(C(=O)NC(=S)Nc2cccc(Cl)c2)cc1`: 1.58 µM and 4.16 µM. The molecule `COc1cc(NC(=N)NC(=O)c2ccc(C(C)(C)C)cc2)ccc1NC(=O)c1ccccc1Cl` gave an EC50 in the test with Vaccinia virus greater than 25 µM. For `CC(C)(C)c1ccc(C(=O)NC(=S)Nc2ccc(Nc3ccccn3)cc2)cc1`, the EC50 in the test on Vaccinia virus and with La Crosse virus was greater than 25 µM each time.

`CC(C)(C)c1ccc(C(=O)NC(=S)Nc2cccc(C(F)(F)F)c2Cl)cc1`: the EC50 in the test on Vaccinia virus turned out to be 1.83 µM; with La Crosse virus, 0.85 µM. For `CC(C)(C)c1ccc(C(=O)NC(=S)Nc2ccc(C(=O)O)cc2)cc1` the same measures were greater than 25 µM and greater than 25 µM.

Consider `CC(C)(C)c1ccc(C(=O)NC(=S)Nc2cc(OC(F)(F)F)ccc2Cl)cc1`, for which the values for the concentration giving a half-maximal response (EC50) in the test with Vaccinia virus and with La Crosse virus were 1.9 µM and greater than 25 µM, respectively. Regarding `COc1cc(NC(=S)NC(=O)c2ccc(C(C)(C)C)cc2)ccc1NC(=O)c1cnccn1`, the EC50 in the test on Vaccinia virus and with La Crosse virus was greater than 25 µM throughout. On to `COc1ccccc1NC(=S)NC(=O)c1ccc(C(C)(C)C)cc1`, for which the values for the EC50 with Vaccinia virus and with La Crosse virus were 1.39 µM and 1.15 µM, respectively. Regarding `COc1cc(NC(=S)NC(=O)c2ccc(C(C)(C)C)cc2)ccc1NC(=O)c1ccccn1`, the EC50 with Vaccinia virus and with La Crosse virus was greater than 25 µM in each case.

Take `CC(C)(C)c1ccc(C(=O)NC(=S)Nc2cccnc2)cc1`: the EC50 in the test with Vaccinia virus and in the test with La Crosse virus was greater than 25 µM each time. Consider `COc1cc(NC(=S)NC(=O)c2ccc(C(C)(C)C)cc2)ccc1NC(=O)c1cccnc1`, for which, in the test with Vaccinia virus, it took 1.72 µM to reach a half-maximal effect (EC50).
